Data as given in patent publication US20050288347A1, “Certain triazole-based compounds, compositions, and uses thereof” (priority 2004, published 2005).
Entries after “also recorded” stand apart in the source; their conditions may differ.

Target: protein kinase
Assay: HTS ATP-utilizing enzyme assay, off-chip mobility-shift format (Caliper HTS 250)
Type: biochemical, human
Details: test compound 10 μM; for Kinase: kinase(s) for which the compound exhibits protein kinase inhibitory activity, active = greater than three-sigma from the mean activity of inactive compounds; for protein kinase against which the compound exhibits inhibitory activity (Table 3): active = activity greater than three-sigma from the mean of the predominately inactive population for that enzyme
Description: The following procedures describe the reagent and plate preparation for a HTS of an ATP-utilizing enzyme, such as a protein kinase, run in an off-chip mobility-shift assay format. The following provides an HTS protocol for running a protein kinase HTS screen on a Caliper HTS 250 microfluidics system. The following parameters are dependent on the protein kinase used and can be determined by one skilled in the art as part of a typical assay development process. For example, the peptide substrate used can be identified from the current literature, by screening a peptide library of potential protein kinase substrates, or by other applicable means accepted in the field.
The following table provides typical screen assay parameters appropriate for a Caliper HTS 250 microfluidics system.
The reagents and buffers listed in the following table are generally applicable for developing and running an HTS screen on a human protein kinase using the Caliper HTS 250 system.
The following reagents were prepared using the previously described buffers.
A 2× Master Buffer solution was prepared by combining 200 mL of 1 M HEPES, pH 7.5, 2 mL of 10% Triton X-100, 20 mL of 10% BSA, and 778 mL of H2O.
Assays to determine the kinase inhibitory activity of chemical entities of the present disclosure were performed using a Caliper HTS 250 microfluidics device, Greiner U-bottom assay plates, a Multidrop for transfer of reagents, and Biomek FX (AMNCBM03) software. Initially, 2.4 μL of a 1 mM solution of a test compound in 100% DMSO was added to a well of the Greiner U-bottom plate. A single Greiner U-bottom plate having 24×16 wells could include multiple test compounds. […] Using the Biomek FX, 10 μL of 0.5 M EDTA was added by the span-8 to wells, indicated as 100% Control and 2.4 μL of 100% DMSO was added by the span-8 to wells, indicated as 0% Control. […] The total reaction volume in each well was 25 μL, and the concentration of the test compound was 10 μM. The assay plate was incubated for 2.5 hrs at 20° C. to 22° C. […] The inhibition of the ATP-utilizing enzyme, such as a particular protein kinase, was determined by measuring the ratio of the peptide substrate to phosphorylated product for each well of the assay plate using the Caliper HTS 250 system.
The use of three-sigma statistical limits represents a conservative method for declaring potential hits among targets. The three-sigma activity, as well as the mean population activity, can be different for each target enzyme.

| Compound | Kinase | protein kinase against which the compound exhibits inhibitory activity (Table 3) |
| --- | --- | --- |
| COc1ccc(NCc2nnc(SCC(=O)Nc3cccc(O)c3)n2-c2ccccc2OC)cc1 | CHEK2; also recorded: PDGFRR-α; also recorded: AURORA-A |  |
| Cc1nnc(SCC(N)=O)n1-c1ccccc1 [2-(5-methyl-4-phenyl-4H-1,2,4-triazol-3-ylthio)acetamide] | DYRK2 |  |
| CCOC(=O)CSc1nnc(-c2ccco2)n1-c1ccc(C)cc1 [ethyl 2-(5-(furan-2-yl)-4-p-tolyl-4H-1,2,4-triazol-3-ylthio)acetate] | PAK2 |  |
| O=[N+]([O-])c1ccc(CSc2nnc[nH]2)cc1 [3-(4-nitrobenzylthio)-4H-1,2,4-triazole] |  | MSK2 and SRC |
| COc1ccc(NCc2nnc(SCC(=O)N(c3ccccc3)c3ccccc3)n2-c2ccccc2)cc1 | CHEK2; also recorded: PDGFRR-α; also recorded: FYN α |  |
| O=C(CSc1nnc(Cc2ccccc2)[nH]1)c1ccc2c(c1)OCCO2 | GSK3-α |  |
| O=C(CSc1nnc(CSc2nc3ccccc3s2)n1-c1ccccc1)NCCO | FYN |  |
| NC(=O)CSc1nnc(-c2ccc(O)cc2)n1-c1cccc(Cl)c1 | GSK3-β; also recorded: GSK3-α |  |
| O=C1c2ccccc2C(=O)N1CCSc1nnc(-c2cccs2)[nH]1 [2-(2-(5-(thiophen-2-yl)-4H-1,2,4-triazol-3-ylthio)ethyl)isoindoline-1,3-dione] |  | AURORA-A; also recorded: GSK3-α; also recorded: DYRK2 |
| COc1ccc(C(=O)CSc2nnc(C3CCCCC3)n2C)cc1 | SYK |  |
| Cc1cccc(-c2nnc(SCCN3CCOCC3)n2C)c1 [4-(2-(4-methyl-5-m-tolyl-4H-1,2,4-triazol-3-ylthio)ethyl)morpholine] |  | AKT1 |
| Cc1ccc(-n2c(SCC(=O)N3CCCCC3)nnc2-c2ccncc2)cc1 | FYN |  |
| COCCSc1nnc(-c2ccc(OC)cc2)n1-c1ccccc1 [3-(2-methoxyethylthio)-5-(4-methoxyphenyl)-4-phenyl-4H-1,2,4-triazole] |  | SYK and INSR and PRAK |
| O=C(CSc1nnc(-c2ccncc2)n1Cc1ccco1)Nc1ccccc1 | SRC and GSK3-α and AKT3 |  |
| Oc1ccc(-c2nnc(SCc3ccccc3)n2Cc2ccccc2)cc1 [4-(4-benzyl-5-(benzylthio)-4H-1,2,4-triazol-3-yl)phenol] |  | GSK3-β and GSK3-α and LYNA |
| CN(C)CCCSc1nnc(-c2ccc([N+](=O)[O-])cc2)[nH]1 [N,N-dimethyl-3-(5-(4-nitrophenyl)-4H-1,2,4-triazol-3-ylthio)propan-1-amine] |  | c-TAK1 |
| Fc1ccc(CSc2nnc(-c3ccc(OC(F)(F)F)cc3)[nH]2)cc1 [3-(4-fluorobenzylthio)-5-(4-(trifluoromethoxy)phenyl)-4H-1,2,4-triazole] |  | FLT-3; also recorded: AURORA-A |
| CCn1c(SCC(=O)Nc2cccc(C(C)=O)c2)nnc1-c1ccc(O)cc1 | GSK3-α |  |
| CCC(c1ccccc1)c1nnc(SCc2cccc3ccccc23)[nH]1 (stereo not shown) [3-(naphthalen-1-ylmethylthio)-5-(1-phenylpropyl)-4H-1,2,4-triazole] |  | AURORA-A |
| Cn1c(COc2ccccc2)nnc1SCc1cc(=O)[nH]c2ccccc12 |  | GSK3a |
| Sc1nnc(CNc2cccc(Cl)c2)n1-c1ccccc1 [5-((3-chlorophenylamino)methyl)-4-phenyl-4H-1,2,4-triazole-3-thiol] | GSK3-β; also recorded: GSK3-α |  |
| Cc1ccc(S(=O)(=O)N(Cc2nnc(SCc3ccc(Cl)cc3Cl)n2-c2ccccc2)c2cccc(Cl)c2)cc1 |  | LCK |
| CCn1c(COc2ccc(Cl)c(C)c2)nnc1SC(C)C |  | AKT1 |

| Compound | Kinase | protein kinase against which the compound exhibits inhibitory activity (Table 3) |
| --- | --- | --- |
| CCC(=O)Nc1cc(NC(=O)CSc2nnc(-c3ccc(O)cc3)n2CC)ccc1C | SGK1 |  |
| CCOCCSc1nnc(-c2ccc(Cl)c(Cl)c2)[nH]1 [3-(3,4-dichlorophenyl)-5-(2-ethoxyethylthio)-4H-1,2,4-triazole] |  | AURORA-A; also recorded: GSK3-β; also recorded: GSK3-α |
| COc1ccc(-n2c(S)nnc2-c2ccccc2OC)cc1 [5-(2-methoxyphenyl)-4-(4-methoxyphenyl)-4H-1,2,4-triazole-3-thiol] | CDK2-cyclinA and CDK2-cyclinE and CDK5 |  |
| FC(F)(F)Oc1ccc(-c2nnc(SCC3CC3)[nH]2)cc1 [3-(cyclopropylmethylthio)-5-(4-(trifluoromethoxy)phenyl)-4H-1,2,4-triazole] |  | FLT-3; also recorded: AURORA-A |
| CCn1c(CNc2ccc(C)cc2)nnc1SCc1ccc(Cl)c(Cl)c1 |  | AURORA-A; also recorded: CDK2-cyclinE |
| O=C(CSc1nnc(CSc2nc3ccccc3s2)n1-c1ccccc1)NCCN1CCOCC1 | CSK |  |
| CCn1c(SCC(=O)c2ccccc2)nnc1-c1cccnc1 [2-(4-ethyl-5-(pyridin-3-yl)-4H-1,2,4-triazol-3-ylthio)-1-phenylethanone] | SYK |  |
| Cc1cc(OCc2nnc(SC(C)C(=O)O)n2-c2ccccc2)ccc1Cl (stereo not shown) | AURORA-A |  |
| COCCn1c(SCC(=O)Nc2ccccc2C(=O)OC)nnc1-c1ccncc1 | GSK3-β; also recorded: GSK3-α |  |
| OC(CSc1nnc(-c2cccs2)[nH]1)C(F)(F)F (stereo not shown) [1,1,1-trifluoro-3-(5-(thiophen-2-yl)-4H-1,2,4-triazol-3-ylthio)propan-2-ol] |  | AURORA-A; also recorded: DYRK2 |
| O=C(O)c1ccc(CSc2nnc(-c3ccncc3)n2Cc2ccco2)cc1 |  | GSK3-α; also recorded: GSK3-β |
| CCn1c(CNc2ccccc2Cl)nnc1SC(C)C(=O)Nc1ccc([N+](=O)[O-])cc1 (stereo not shown) | PDGFRR-α |  |
| COc1ccccc1-n1c(SCC(=O)c2ccc(Cl)s2)nnc1-c1cccc(Cl)c1 |  | ROCK2 |
| Cc1cc(OCc2nnc(SCCN3CCOCC3)n2Cc2ccccc2)ccc1Cl |  | AURORA-A |
| COc1ccc(OCc2nnc(SCC(=O)c3ccccc3)n2C)cc1 | PAK2 |  |
| NC(=O)CSc1nnc(-c2cc3ccccc3cc2O)n1Cc1ccco1 | SRC |  |
| CCOC(=O)CN(C(=O)CSc1nnc(-c2ccccc2)n1-c1ccccc1OC)c1cccc([N+](=O)[O-])c1 | GSK3-α |  |
| COc1cc([N+](=O)[O-])ccc1NC(=O)CSc1nnc(-c2ccncc2)n1Cc1ccco1 | FYN and PDGFRR-α and FLT-3 |  |
| O=C(CSc1nnc(-c2ccncc2)n1-c1ccc(F)cc1)Nc1cccc(O)c1 | AURORA-A |  |
| COc1ccc(OCc2nnc(SC(C)C(=O)Nc3ccccc3C)n2C)cc1 (stereo not shown) | PDGFRR-α |  |
| O=C(CSc1nnc(-c2ccccc2O)n1Cc1ccccc1)NNC(=O)c1ccccc1O |  | FYN and HCK |
| CCOc1ccc(NCc2nnc(SCC(=O)Nc3cc(C(F)(F)F)ccc3Cl)n2-c2ccc(OC)cc2)cc1 | PAK2 and AURORA-A and FYN |  |
| CCn1c(S)nnc1CNc1cccc(C(F)(F)F)c1 [4-ethyl-5-((3-(trifluoromethyl)phenylamino)methyl)-4H-1,2,4-triazole-3-thiol] | GSK3-α |  |
